The values that follow come from PubChem BioAssay AID651798 (Broad Institute, 2012).

Structures are written as SMILES. Calls of active or inactive are those of the source.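 How the source made its calls: active means fitted AC50 at or below twice the top valid dose, with signal falling as dose rises; inconclusive means flat fit between -30 and -70%, or poor fit; inactive means the rest, including rising effects.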

In the first assay the target is Kelch-like ECH-associated protein 1 (Homo sapiens) (UniProt Q14145). Kind of assay: Keap1-Nrf2 protein-protein interaction inhibitors, dose response, biochemical, fluorescence polarization, dry powder samples (AID 651798). As to conditions: Keap1 Kelch/FITC-Nrf2 peptide fluorescence polarization.
Sequence of Kelch-like ECH-associated protein 1 (Homo sapiens) (Q14145 whole entry, looked up): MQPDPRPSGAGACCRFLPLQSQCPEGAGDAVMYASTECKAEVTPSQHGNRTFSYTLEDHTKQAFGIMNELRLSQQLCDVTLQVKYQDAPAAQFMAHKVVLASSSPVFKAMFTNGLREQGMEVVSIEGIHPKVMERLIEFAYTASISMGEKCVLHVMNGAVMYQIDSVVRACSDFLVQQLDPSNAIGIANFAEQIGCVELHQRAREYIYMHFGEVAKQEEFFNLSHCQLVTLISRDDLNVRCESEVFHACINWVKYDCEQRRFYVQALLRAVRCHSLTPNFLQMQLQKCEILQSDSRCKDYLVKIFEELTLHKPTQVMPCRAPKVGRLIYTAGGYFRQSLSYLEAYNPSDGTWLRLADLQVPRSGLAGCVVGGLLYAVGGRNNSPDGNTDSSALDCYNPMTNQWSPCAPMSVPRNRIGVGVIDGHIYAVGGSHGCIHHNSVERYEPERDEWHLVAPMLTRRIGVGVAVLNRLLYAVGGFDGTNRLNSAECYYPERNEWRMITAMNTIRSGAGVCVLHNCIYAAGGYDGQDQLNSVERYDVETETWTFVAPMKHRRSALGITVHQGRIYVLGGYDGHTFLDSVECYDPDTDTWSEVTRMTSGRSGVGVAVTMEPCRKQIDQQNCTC
For the molecule `O=C(O)[C@H]1CCCC[C@H]1C(=O)N1CCC2=C(CCCC2)C1CN1C(=O)c2ccccc2C1=O` (stereo partly specified), the AC50 was > 100 µM (inactive).
On the same count and under the same terms, as for `O=C(O)C1CCCCC1C(=O)N1CCc2ccccc2C1CN1Cc2ccccc2C1=O` (stereo unspecified), the figure is 31.9 µM; as for `O=C(O)Cc1ccccc1C(=O)N1CCc2ccccc2[C@H]1CN1C(=O)c2ccccc2C1=O`, 28.3 µM; as for `CC(=O)Nc1cc(NS(=O)(=O)c2c(C)cc(C)cc2C)c2ccccc2c1O`, 15.2 µM.
On the same count and under the same terms, as for `Cc1ccc(S(=O)(=O)NC(=O)[C@@H]2c3ccccc3CCN2C(=O)[C@@H]2CCCC[C@@H]2C(=O)O)cc1`, the figure is > 100 µM (inactive); as for `Cc1ccc(S(=O)(=O)Nc2cc(C(C(=O)OC(C)C)C(=O)C(F)(F)F)c(O)c3ccccc23)c(C)c1` (stereo unspecified), 2.26 µM.
`O=C(NCCc1ccccc1)c1ccccc1C(=O)NC[C@@H]1c2ccccc2CCN1C(=O)C1CCCCC1C(=O)O` (stereo partly specified): the AC50 is > 100 µM (inactive).
With `Cc1ccc(S(=O)(=O)Nc2cc(C(C(=O)OC(C)C)C(=O)C(F)(F)F)c(O)c3ccccc23)cc1` (stereo unspecified), the half-maximal activity concentration (AC50) is 7.25 µM.
On the same count and under the same terms, as for `Cc1ccccc1S(=O)(=O)Nc1cc(C(C(=O)OC(C)C)C(=O)C(F)(F)F)c(O)c2ccccc12` (stereo unspecified), the figure is 3.2 µM; as for `COC(=O)C(C(=O)OC)c1cc(NS(=O)(=O)c2c(C)cc(C)cc2C)c2ccccc2c1O`, 34.2 µM; as for `Cc1cc(C)c(S(=O)(=O)Nc2cc(C(C(=O)OC(C)C)C(=O)C(F)(F)F)c(O)c3ccccc23)c(C)c1` (stereo unspecified), 0.673 µM.
Still for that read-out and setting: as for `O=C(O)[C@H]1C2C=CC(C2)[C@H]1C(=O)N1CCc2ccccc2C1CN1C(=O)c2ccccc2C1=O` (stereo partly specified), the figure is > 100 µM (inactive); as for `O=C(O)C1CCCCC1C(=O)N1CCc2ccccc2C1CN1C(=O)Cc2ccccc2C1=O` (stereo unspecified), > 100 µM (inactive).
The same measure, in the same setting: as for `O=C(O)C1CCCCC1C(=O)N1CCc2ccccc2C1CN1C(=O)[C@H]2CCCC[C@H]2C1=O` (stereo partly specified), the figure is > 100 µM (inactive).

Still in this assay, the particulars now being: Keap1 Kelch/FITC-Nrf2 peptide fluorescence polarization; at 12 µM (top of the series).
With `O=C1c2ccccc2C(=O)N1CC1c2ccccc2CCN1C(=O)Cc1ccccc1` (stereo unspecified), the “activity change, negative = inhibition” value was “inactive”.

The same assay, now with this note: Keap1 Kelch/FITC-Nrf2 peptide fluorescence polarization; at 50 µM (top of the series).
For the molecule `Cc1ccc(S(=O)(=O)NNc2nc(NCC(N)=O)nc3ccccc23)cc1`, the “activity change, negative = inhibition” value was “inactive”.
On the same count and under the same terms, as for `C=CC(=O)NC[C@@H]1c2ccccc2CCN1C(=O)[C@@H]1CCCC[C@@H]1C(=O)O`, the entry is “inactive”; as for `O=C(O)[C@H]1CCCC[C@H]1C(=O)N1CCC2=C(CCCC2)C1CN1C(=O)c2ccccc2C1=O` (stereo partly specified), “inactive”; as for `CCOC(=O)C(C(=O)OCC)c1cc(CNS(=O)(=O)c2ccc(C)cc2C)c2ccccc2n1`, “inactive”.
Same read-out and setting: as for `O=C(O)C1CCCCC1C(=O)N1CCc2ccccc2[C@H]1C(=O)NCCc1ccccc1` (stereo partly specified), the entry is “inactive”; as for `Cc1ccc(S(=O)(=O)NC2=CC(=N[C@@H](C)C(=O)OC(C)(C)C)C(=O)c3ccccc32)c(C)c1`, “inactive”.
The same measure, in the same setting: as for `COC(=O)C1CCCCC1C(=O)N1CCc2ccccc2C1CN1C(=O)c2ccccc2C1=O` (stereo unspecified), the entry is “inactive”.
As to `O=C(Cc1ccccc1)NC[C@@H]1c2ccccc2CCN1C(=O)[C@@H]1CCCC[C@@H]1C(=O)O`, the “activity change, negative = inhibition” value was “inactive”.
On to `O=C(NC[C@@H]1c2ccccc2CCN1C(=O)[C@@H]1CCCC[C@@H]1C(=O)O)c1ccc(CN2CCOCC2)cc1`, for which the “activity change, negative = inhibition” value is “inactive”.
On the same count and under the same terms, as for `COC(=O)[C@@H]1CCCC[C@@H]1C(=O)N1CCc2ccccc2[C@H]1CN1C(=O)c2ccccc2C1=O`, the entry is “inactive”; as for `O=C(O)[C@H]1CCCC[C@H]1C(=O)NC(CN1C(=O)c2ccccc2C1=O)c1ccccc1` (stereo partly specified), “inactive”.
In the case of `COC(=O)[C@@H]1CCCC[C@@H]1C(=O)N1CCc2ccccc2[C@@H]1CN1C(=O)c2ccccc2C1=O`, the “activity change, negative = inhibition” value was “inactive”.
On to `O=S(=O)(Nc1nc(NCC2CCCCC2)nc2ccccc12)c1ccccc1`, for which the “activity change, negative = inhibition” value was “inactive”.
Still for that read-out and setting: as for `O=C(O)C1CCCCC1C(=O)Nc1ccccc1CN1C(=O)c2ccccc2C1=O` (stereo unspecified), the entry is “inactive”; as for `Cc1cc(C)c(S(=O)(=O)Nc2nc(C(C(=O)OC(C)C)C(=O)C(F)(F)F)nc3ccccc23)c(C)c1` (stereo unspecified), “inactive”.
Same read-out and setting: as for `Cc1ccc(S(=O)(=O)NNc2nc(C(C(=O)OC(C)C)C(=O)C(F)(F)F)nc3ccccc23)cc1` (stereo unspecified), the entry is “inactive”; as for `O=C(O)[C@@H]1CCCN1C(=O)N1CCc2ccccc2[C@H]1CN1C(=O)c2ccccc2C1=O`, “inactive”.
Same read-out and setting: as for `O=C1c2ccccc2C(=O)N1C[C@@H]1c2ccccc2CCN1C(=O)C1CCCCC1`, the entry is “inactive”; as for `O=C1c2ccccc2C(=O)N1CC1=NCCc2ccccc21`, “inactive”.
Turning to `O=C(O)c1ccccc1C(=O)N1CCc2ccccc2C1CN1C(=O)c2ccccc2C1=O` (stereo unspecified), the “activity change, negative = inhibition” value is “inactive”.
The same measure, in the same setting: as for `O=C(NC[C@@H]1c2ccccc2CCN1C(=O)[C@@H]1CCCC[C@@H]1C(=O)O)OCC1c2ccccc2-c2ccccc21`, the entry is “inactive”.
For `C[C@H](NC(=O)C1CCCC[C@H]1C(=O)O)c1ccccc1` (mixture of isomers), the “activity change, negative = inhibition” value was “inactive”.
Same read-out and setting: as for `COC(=O)[C@H]1CCCC[C@H]1C(=O)N1CCc2ccccc2[C@H]1CN1C(=O)c2ccccc2C1=O`, the entry is “inactive”; as for `Cc1ccc(S(=O)(=O)NC(=O)[C@@H]2c3ccccc3CCN2C(=O)[C@@H]2CCCC[C@@H]2C(=O)O)cc1`, “inactive”; as for `O=C(O)[C@H]1CCCC[C@H]1C(=O)N1CCc2ccccc2C1CCN1C(=O)c2ccccc2C1=O` (stereo partly specified), “inactive”.
Same read-out and setting: as for `CCOC(=O)C(C(=O)OCC)c1cc(CN2C(=O)c3ccccc3C2=O)c2ccccc2n1`, the entry is “inactive”; as for `Cc1ccc(S(=O)(=O)NC[C@@H]2c3ccccc3CCN2C(=O)[C@@H]2CCCC[C@@H]2C(=O)O)c(C)c1`, “inactive”; as for `CCOC(=O)Cc1nc(NS(=O)(=O)c2c(C)cc(C)cc2C)c2ccccc2n1`, “inactive”.
On the same count and under the same terms, as for `O=C(O)/C=C\C(=O)N1CCc2ccccc2C1CN1C(=O)c2ccccc2C1=O` (stereo unspecified), the entry is “inactive”; as for `COC(=O)CNc1nc(NS(=O)(=O)c2c(C)cc(C)cc2C)c2ccccc2n1`, “inactive”.
With `Cc1cc(C)c(S(=O)(=O)Nc2ncnc3ccccc23)c(C)c1`, the “activity change, negative = inhibition” value was “inactive”.
The same measure, in the same setting: as for `O=C(O)CCC(=O)N1CCc2ccccc2C1CN1C(=O)c2ccccc2C1=O` (stereo unspecified), the entry is “inactive”; as for `O=C(O)C1CCCCC1C(=O)NCC1c2ccccc2CCN1C(=O)Cc1ccccc1` (stereo unspecified), “inactive”.
As to `O=C(NC[C@@H]1c2ccccc2CCN1C(=O)[C@@H]1CCCC[C@@H]1C(=O)O)c1ccccc1CO`, the “activity change, negative = inhibition” value was “inactive”.
`O=C(NC[C@@H]1c2ccccc2CCN1C(=O)[C@@H]1CCCC[C@@H]1C(=O)O)c1ccc(CCl)cc1`: the “activity change, negative = inhibition” value is “inactive”.
On the same count and under the same terms, as for `O=C(O)C1CCCCC1C(=O)N1CCCCC1CN1C(=O)c2ccccc2C1=O` (stereo unspecified), the entry is “inactive”; as for `Cc1cc(C)c(S(=O)(=O)Nc2nc(NCCO)nc3ccccc23)c(C)c1`, “inactive”; as for `COc1ccccc1CCNC(=O)[C@@H]1c2ccccc2CCN1C(=O)C1CCCCC1C(=O)O` (stereo partly specified), “inactive”.
The same measure, in the same setting: as for `O=C(O)[C@H]1CCCC[C@H]1C(=O)N1CCc2ccccc2[C@H]1CNS(=O)(=O)c1ccccc1`, the entry is “inactive”; as for `O=C(O)c1ccccc1C(=O)NC[C@@H]1c2ccccc2CCN1C(=O)[C@@H]1CCCC[C@@H]1C(=O)O`, “inactive”.
Same read-out and setting: as for `CCOC(=O)C(C(=O)OCC)c1nc(NS(=O)(=O)c2c(C)cc(C)cc2C)c2ccccc2n1`, the entry is “inactive”; as for `NC(=O)[C@H]1CCCC[C@H]1C(=O)N1CCc2ccccc2[C@H]1CN1C(=O)c2ccccc2C1=O`, “inactive”.
For the molecule `O=C(NCCO)c1ccccc1C(=O)NC[C@@H]1c2ccccc2CCN1C(=O)C1CCCCC1C(=O)O` (stereo partly specified), the “activity change, negative = inhibition” value is “inactive”.
Same read-out and setting: as for `O=C(O)[C@H]1CCCC[C@H]1C(=O)N1CCc2ccccc2[C@H]1CNS(=O)(=O)c1ccc([N+](=O)[O-])cc1`, the entry is “inactive”; as for `Cc1cc(C)c(S(=O)(=O)Nc2nc(N(C)C)nc3ccccc23)c(C)c1`, “inactive”.
On the same count and under the same terms, as for `Cc1cc(C)c(S(=O)(=O)Nc2cc(C(C(=O)OCc3ccccc3)C(=O)OCc3ccccc3)c(O)c3ccccc23)c(C)c1`, the entry is “inactive”.
In the case of `O=C(NCCCN1CCOCC1)c1ccccc1C(=O)NC[C@@H]1c2ccccc2CCN1C(=O)C1CCCCC1C(=O)O` (stereo partly specified), the “activity change, negative = inhibition” value is “inactive”.
The same measure, in the same setting: as for `O=C(Oc1cc(CN2C(=O)c3ccccc3C2=O)c2ccccc2[n+]1[O-])c1cccc(Cl)c1`, the entry is “inactive”; as for `O=C1c2ccccc2C(=O)N1C[C@@H]1c2ccccc2CCN1C(=O)OCc1ccccc1`, “inactive”.
With `C[C@@H](NC(=O)C1CCCC[C@H]1C(=O)O)c1ccccc1` (mixture of isomers), the “activity change, negative = inhibition” value was “inactive”.
On the same count and under the same terms, as for `CC(C)CNc1nc(NS(=O)(=O)c2ccccc2)c2ccccc2n1`, the entry is “inactive”; as for `O=C(O)C1CCCCC1C(=O)N1CCc2ccccc2[C@H]1C(=O)NC12CC3CC(CC(C3)C1)C2` (stereo partly specified), “inactive”; as for `O=C(O)CC(=O)N1CCc2ccccc2C1CN1C(=O)c2ccccc2C1=O` (stereo unspecified), “inactive”.
`COc1ccc(CCN=C2C=C(NS(=O)(=O)c3c(C)cc(C)cc3C)c3ccccc3C2=O)cc1`: the “activity change, negative = inhibition” value is “inactive”.
On the same count and under the same terms, as for `O=C(O)[C@H]1CCCC[C@H]1C(=O)N1CCc2ccccc2[C@H]1CNc1nc(Cl)nc2ccccc12`, the entry is “inactive”; as for `O=C(NC[C@@H]1c2ccccc2CCN1C(=O)[C@@H]1CCCC[C@@H]1C(=O)O)c1ccccc1`, “inactive”.
